Experimental findings from article doi:10.1101/705327v1 (biorxiv, 2019) are described below.

Assay type in all cases: biochemical
For test [1], the target named is T1, recombinant mouse Acot13 (Mus musculus, UniProt Q9CQR4).
T1 sequence (Q9CQR4 1-140): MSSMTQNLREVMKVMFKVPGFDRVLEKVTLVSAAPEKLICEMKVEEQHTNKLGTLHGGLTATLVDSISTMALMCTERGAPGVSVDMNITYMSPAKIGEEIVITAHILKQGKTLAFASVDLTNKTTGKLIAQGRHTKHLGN
Briefly: thioesterase activity assay.

A further test addresses T2, Acot2 (Mus musculus, UniProt Q9QYR9).
T2 sequence (Q9QYR9 43-453): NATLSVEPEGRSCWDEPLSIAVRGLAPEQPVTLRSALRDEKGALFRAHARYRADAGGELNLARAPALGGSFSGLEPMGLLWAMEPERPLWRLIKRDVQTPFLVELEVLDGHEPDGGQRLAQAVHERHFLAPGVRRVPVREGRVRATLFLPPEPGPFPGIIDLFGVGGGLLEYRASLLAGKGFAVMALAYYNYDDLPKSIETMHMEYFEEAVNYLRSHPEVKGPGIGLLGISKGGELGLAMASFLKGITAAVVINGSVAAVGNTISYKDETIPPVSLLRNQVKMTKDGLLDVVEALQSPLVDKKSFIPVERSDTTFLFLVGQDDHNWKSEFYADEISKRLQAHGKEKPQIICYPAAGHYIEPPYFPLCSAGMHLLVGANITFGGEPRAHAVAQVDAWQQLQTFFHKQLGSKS
Nature of the test: thioesterase activity in liver mitochondria overexpressing Acot2. As to conditions: read-out: % inhibition at 10 mM.

Test [2] has as its target T1, recombinant mouse Acot13. Briefly: thioesterase activity assay. The conditions noted are these: read-out: % inhibition at 10 mM.

The structures appear in SMILES notation.

With `CC(C)(COP(=O)(O)OP(=O)(O)OC[C@H]1O[C@@H](n2cnc3c(N)ncnc32)[C@H](O)[C@@H]1OP(=O)(O)O)[C@@H](O)C(=O)NCCC(=O)NCCS` [CoA], the IC50 on recombinant mouse Acot13 [1] is ~35 µM. As for `Nc1ncnc2c1ncn2[C@@H]1O[C@H](COP(=O)(O)OP(=O)(O)O)[C@@H](O)[C@H]1O` [ADP], the inhibition at 10000 µM at Acot2 and at recombinant mouse Acot13 [2] was ~20% in each case. For the compound `Nc1ncnc2c1ncn2[C@@H]1O[C@H](COP(=O)(O)OP(=O)(O)OP(=O)(O)O)[C@@H](O)[C@H]1O` [ATP], the inhibition at 10000 µM at Acot2 and at recombinant mouse Acot13 [2] was ~20% each time.

By IC50 is commonly meant the concentration that gives 50% inhibition. As a reminder, the inhibition is the share of the control response that was lost under treatment.
